# Laboratory results taken from patent US20140221282A1, “LONG DURATION DUAL HORMONE CONJUGATES” (priority 2011, published 2014).
# Ends that are not written are not given here. Y‑shaped‑mPEG40KD = Y-shaped methoxy-PEG of 40 kDa attached to the Lys side chain; mPEG40KD = methoxy-PEG of 40 kDa
# Assays:
# amylin receptor = test: Amylin receptor binding assay, rat nucleus accumbens membranes; conditions: 125I-rat amylin displacement
# Source text: Dried glass fiber plates were combined with scintillant and counted on a multi-well Perkin Elmer scintillation counter, as well known in the art.
# [1] = Body weight change in lean rats; format: in vivo; conditions: for body weight reduction: SC 125 nmol/kg (FIG. 17)
# Description: Lean rats were administered a subcutaneous (SC) once weekly injection of test compound (125 nmol/kg) or vehicle. FIGS. 13A-13B provide the result of a multi-day food intake assays. The effect on 24-hour food intake was investigated for Cmpds 69, 73, 72, 70, and 74, using vehicle as control. […] In the case of some of the compounds, weight loss was still evident even after one week.
# The effect on 24-hour food intake, as judged with SC injection (125 nmol/kg), was investigated for Cmpds 74, 76, 77 and 78.
# Test animals (lean rats) were injected SC at 125 nmol/kg, and body weight corrected for vehicle (FIG. 19A) and cumulative food intake (FIG. 19B) were determined for 7-days. As shown in FIGS. 19A-19B, most compounds in the tested series provided weight loss which was still evident after 7-days.
# Food intake in lean rats = format: in vivo; conditions: for food intake: SC once weekly injection 125 nmol/kg
# Description: A variety of food intake assays are available to one of skill in the art. For example, in the so-called “home cage model” of food intake, subjects (e.g., rats) are maintained in their home cage, and food intake along with total weight of the subject is measured following injection of test compound. In the so-called “feeding patterns model” of food intake assay, subjects (e.g., rats) are habituated to a feeding chamber and to injections prior to testing. After test compound administration, the subjects are immediately placed into the feeding chamber, and food intake is automatically determined as a function of time (e.g., 1-min intervals). For both tests, the food is standard chow or any of a variety of chows (e.g., high fat) known in the art. In the so-called “mouse food intake” assay, a test compound may be tested for appetite suppression, or for an effect on body weight gain in diet-induced obesity (DIO) mice. In a typical mouse food intake assay, female NIH/Swiss mice (8-24 weeks old) are group housed with a 12:12 hour light:dark cycle with lights on at 0600. Water and a standard pelleted mouse chow diet are available ad libitum, except as noted. Animals are fasted starting at approximately 1500 hrs, I day prior to experiment. The morning of the experiment, animals are divided into experimental groups. In a typical study, n=4 cages with 3 mice/cage. At time=0 min, all animals are given an intraperitoneal injection of vehicle or compound, typically in an amount ranging from about 10 nmol/kg to 75 nmol/kg, and immediately given a pre-weighed amount (10-15 g) of the standard chow. Food is removed and weighed at various times, typically 30, 60, and 120 minutes, to determine the amount of food consumed. See e.g., Morley et al., 1994, Am. J. Physiol. 267:R178-R184). Food intake is calculated by subtracting the weight of the food remaining at the e.g. 30, 60, 120, 180 and/or 240 minute time point, from the weight of the food provided initially at time=0. Significant treatment effects are identified by ANOVA (p<0.05). Where a significant difference exists, test means are compared to the control mean using Dunnett's test (Prism v. 2.01, GraphPad Software Inc., San Diego, Calif.). For any test described herein, administration of test compound can be by any means, including injection (e.g., subcutaneous, intraperitoneal, and the like), oral, or other methods of administration known in the art.
# FIGS. 13A-13B provide the result of a multi-day food intake assays. The effect on 24-hour food intake was investigated for Cmpds 69, 73, 72, 70, and 74, using vehicle as control. […] In the case of some of the compounds, weight loss was still evident even after one week. […]
# As shown in FIGS. 19A-19B, most compounds in the tested series provided weight loss which was still evident after 7-days.
# [2] = Body weight change in lean rats; format: in vivo; conditions: for body weight reduction: Cmpd 77 31.25-250 nmol/kg, Cmpd 79 250 nmol/kg (FIG. 18)
# [3] = Body weight change in diet induced obese (DIO) rats; format: in vivo, DIO Sprague Dawley rats; conditions: SC once a week 125 nmol/kg, four weeks
# Description: The effect of Cmpd 14 on body weight was examined in male outbred diet-induced obese Sprague Dawley rats. Percent vehicle-corrected change in body weight was measured relative to PEGylated parent peptides alone and in combination. […]
# Specifically, in this experiment the duration of action on food intake and change in body weight was compared for compounds having a single active peptide element (Cmpd 6 and Cmpd 7) relative to the combined dosing of these compounds, and further relative to LDDHC Cmpd 14, having the active peptide elements of Cmpds 6-7 separated by a 40 kDa PEG water-soluble polymeric spacer. […] In the combination dosing, each of Cmpd 6 and Cmpd 7 was administered at 32 nmol/kg. The test subjects were DIO rats (n=6/group, body weight baseline=478 g). […]
# Plasma drug levels were determined by ELISA assay.
# […] The baseline body weight was 505 gm.
# [4] = SC once weekly injection 125 nmol/kg
# [5] = Cmpd 77 31.25-250 nmol/kg, Cmpd 79 250 nmol/kg (FIG. 18)
Compound,IC50 (amylin receptor) [nM],"body weight [1, 4]",food intake (Food intake in lean rats),further results
"CC(C)C[C@H](NC(=O)[C@H](CC(N)=O)NC(=O)[C@H](CC(N)=O)NC(=O)[C@H](CO)NC(=O)[C@H](CO)NC(=O)[C@H](CCCNC(=N)N)NC(=O)[C@@H](NC(=O)[C@H](CC(C)C)NC(=O)[C@H](Cc1ccccc1)NC(=O)[C@H](CC(N)=O)NC(=O)[C@H](C)NC(=O)[C@H](CC(C)C)NC(=O)[C@H](CCCNC(=N)N)NC(=O)[C@H](CCC(N)=O)NC(=O)[C@@H](NC(=O)[C@H](C)NC(=O)[C@@H]1CSSC[C@H](NC(=O)[C@@H](N)CCCCN)C(=O)N[C@@H](CC(N)=O)C(=O)N[C@@H]([C@@H](C)O)C(=O)N[C@@H](C)C(=O)N[C@@H]([C@@H](C)O)C(=O)N1)[C@@H](C)O)C(C)C)C(=O)NCC(=O)N1CCC[C@H]1C(=O)N[C@H](C(=O)N[C@@H](CC(C)C)C(=O)N1CCC[C@H]1C(=O)N1CCC[C@H]1C(=O)N[C@H](C(=O)N[C@@H](CC(N)=O)C(=O)N[C@H](C(=O)NCC(=O)N[C@@H](CO)C(=O)N[C@@H](CC(N)=O)C(=O)N[C@H](C(=O)N[C@@H](Cc1ccc(O)cc1)C(N)=O)[C@@H](C)O)C(C)C)[C@@H](C)O)C(C)C [Cmpd 49, reference compound]",0.1,–,–,–
"CNTATCATQRLANFLVRSSNNLGPVLPPTNVGSNTY [Cmpd 50, [des-Lys^1]-Cmpd 49]",0.42,–,–,–
[K^21(mPEG40KD)]-Cmpd 51 (KCNTATCATQRLANFLVRSSK(mPEG 40 kDa)NLGPVLPPTNVGSNTY-NH2; cysteine pairing not given here) [Cmpd 69],–,efficacious,efficacious,–
[K^21(mPEG40KD)]-Cmpd 52 (CNTATCATQRLANFLVRSSK(mPEG 40 kDa)NLGPVLPPTNVGSNTY-NH2; cysteine pairing not given here) [Cmpd 70],–,efficacious,efficacious,–
[K^21(mPEG40KD)]-Cmpd 59 (CNTATCATQRLANFLVHSSK(mPEG 40 kDa)NFGPILPPTNVGSNTY-NH2; cysteine pairing not given here) [Cmpd 76],–,–,–,body weight reduction [1]: at least as efficacious as Cmpd 74; food intake reduction (Food intake in lean rats; SC 125 nmol/kg (FIG. 17)): at least as efficacious as Cmpd 74
[K^26(Y-shaped-mPEG40KD)]-Cmpd 53 (KCNTATCATQRLANFLVRSSNNLGPK(Y‑shaped‑mPEG40KD)LPPTNVGSNTY-NH2; cysteine pairing not given here) [Cmpd 75],470,–,–,"body weight ([1]; single SC dose, y-branched vs linear PEG): not as efficacious as the linear pegylated version, Cmpd 71"
[K^26(Y-shaped-mPEG40KD)]-Cmpd 60 (CNTATCATQRLANFLVHSSNNFGPK(Y‑shaped‑mPEG40KD)LPPTNVGSNTY-NH2; cysteine pairing not given here) [Cmpd 79],–,–,–,"food intake reduction (Food intake in lean rats; [5]): not as efficacious as the linear pegylated version, Cmpd 77; body weight reduction [2]: not as efficacious as the linear pegylated version, Cmpd 77"
[K^26(mPEG40KD)]-Cmpd 53 (KCNTATCATQRLANFLVRSSNNLGPK(mPEG40KD)LPPTNVGSNTY-NH2; cysteine pairing not given here) [Cmpd 71],66,–,–,"weight loss [3]: not as efficacious as infused Cmpd 49; food intake, dose response (Food intake in lean rats; 12-250 nmol/kg): reduced body weight and food intake in a dose dependent fashion; body weight, dose response ([2]; 12-250 nmol/kg): reduced body weight and food intake in a dose dependent fashion"
[K^26(mPEG40KD)]-Cmpd 54 (CNTATCATQRLANFLVRSSNNLGPK(mPEG40KD)LPPTNVGSNTY-NH2; cysteine pairing not given here) [Cmpd 72],–,efficacious,efficacious,–
[K^26(mPEG40KD)]-Cmpd 60 (CNTATCATQRLANFLVHSSNNFGPK(mPEG40KD)LPPTNVGSNTY-NH2; cysteine pairing not given here) [Cmpd 77],–,–,–,body weight reduction [1]: at least as efficacious as Cmpd 74; food intake reduction (Food intake in lean rats; [5]): dose dependent efficacy; food intake reduction (Food intake in lean rats; SC 125 nmol/kg (FIG. 17)): at least as efficacious as Cmpd 74; body weight reduction [2]: dose dependent efficacy
[K^31(mPEG40KD)]-Cmpd 55 (KCNTATCATQRLANFLVRSSNNLGPVLPPTK(mPEG40KD)VGSNTY-NH2; cysteine pairing not given here) [Cmpd 73],–,efficacious,efficacious,–
[K^31(mPEG40KD)]-Cmpd 56 (CNTATCATQRLANFLVRSSNNLGPVLPPTK(mPEG40KD)VGSNTY-NH2; cysteine pairing not given here) [Cmpd 74],–,efficacious,efficacious,–
[K^31(mPEG40KD)]-Cmpd 61 (CNTATCATQRLANFLVHSSNNFGPILPPTK(mPEG40KD)VGSNTY-NH2; cysteine pairing not given here) [Cmpd 78],–,–,–,body weight reduction [1]: at least as efficacious as Cmpd 74; food intake reduction (Food intake in lean rats; SC 125 nmol/kg (FIG. 17)): at least as efficacious as Cmpd 74
"mPEG40KD-Cmpd 50 (CNTATCATQRLANFLVRSSNNLGPVLPPTNVGSNTY-NH2; cysteine pairing not given here; also: mPEG40KD attached, site not given here) [Cmpd 68]",78,–,–,–
